The source made the active and inactive calls. The calls are words filed in the database; no cut-off is given here.
Experiments:
Mus musculus [1] = species: Mus musculus; assay: Evaluated for the percentage blockade of activity in mice; format: functional
Mus musculus [2] = species: Mus musculus; assay: Evaluated for the spontaneous motor activity in mice and the mean total activity (MTA) was reported; Expressed as counts/90 min/3 mice; format: functional
Mus musculus [3] = assay: Ability to stimulate mice at dose of 8 mg/kg; Slight increase in spontaneous motor activity; format: functional, organism-based; parameters: dose 8 mg/kg
Rattus norvegicus [4] = assay: Number of rats falling (1) within each stereotypy classification after intraperitoneal administration (110 uM/Kg); continuous sniffing, some arousal; format: functional, organism-based
Rattus norvegicus [5] = assay: Number of rats falling (3) within each stereotypy classification after intraperitoneal administration (110 uM/Kg); continuous sniffing, some head bobbing and weaving (total rats 4); format: functional, organism-based
Rattus norvegicus [6] = assay: Number of rats falling (4) within each stereotypy classification after intraperitoneal administration (110 uM/Kg); continuous sniffing, with repetitive sequences of head and limb movements, as well as some licking and rearing (total rats 4); format: functional, organism-based

Question: Which Block of activity (Mus musculus [1]) does the source give for `CC(N)Cc1ccccc1.COC(=O)C(C)(N)Cc1ccc(O)cc1` (stereo not given) here?
Answer: Its Block of activity is 64.2%.

Question: And the MTA (Mus musculus [2])?
Answer: Its MTA is 5144.

Question: With `COC(=O)C(C)(N)Cc1ccc(O)cc1.NC1C=Cc2ccccc2C1` (stereo not given) as the compound, how does the Block of activity (Mus musculus [1]) read?
Answer: Its Block of activity is 59.3%.

Question: And the MTA (Mus musculus [2])?
Answer: Its MTA is 3491.

Question: With `NC1CCc2ccccc2C1` (stereo not given) as the compound, how does the Activity (Mus musculus [3]) read?
Answer: The Activity was “Active”.

Question: `COC(=O)[C@H]1[C@H]2C[C@@H]3c4[nH]c5cc(OC)ccc5c4CCN3C[C@H]2C[C@@H](OC(=O)c2cc(OC)c(OC)c(OC)c2)[C@@H]1OC.Cl.NC1C=Cc2ccccc2C1` (racemic) was tested. Which Activity (Rattus norvegicus [4]) did it give?
Answer: Its Activity is “continuous sniffing, some arousal”.

Question: What about the Activity (Rattus norvegicus [5]) of the same compound?
Answer: The Activity was “continuous sniffing, some arousal”.

Question: For `NC1C=Cc2ccccc2C1` (racemic), which Activity (Rattus norvegicus [6]) is on record?
Answer: The Activity was “continuous sniffing, with repetitive sequences of head and limb movements, as well as some licking and rearing (total rats 4)”.

Question: `Cl.NC1C=Cc2ccccc2C1` (single isomer, unassigned; (-)) was tested. Which MTA (Mus musculus [2]) did it give?
Answer: Its MTA is 8566.

Question: For `C[C@H](N)Cc1ccccc1` [DEXTROAMPHETAMINE], which MTA (Mus musculus [2]) is on record?
Answer: Its MTA is 14356.

From ChEMBL document CHEMBL1122053, “A new, potent, conformationally restricted analogue of amphetamine: 2-amino-1,2-dihydronaphthalene” (1982)
